ChEMBL document CHEMBL4387782, “A new approach to procyanidins synthesis with potent anti-adipogenic effects” (Bioorg Med Chem Lett, 2019)
Activity calls are given as the source filed them. The calls are words filed in the database; no cut-off is given here.

Legend:
[1] = biological target: T1, Pancreatic triacylglycerol lipase (Sus scrofa, UniProt P00591); assay: Inhibition of porcine pancreatic lipase using pNPB as substrate measured after 30 mins
T1 sequence (P00591 whole entry): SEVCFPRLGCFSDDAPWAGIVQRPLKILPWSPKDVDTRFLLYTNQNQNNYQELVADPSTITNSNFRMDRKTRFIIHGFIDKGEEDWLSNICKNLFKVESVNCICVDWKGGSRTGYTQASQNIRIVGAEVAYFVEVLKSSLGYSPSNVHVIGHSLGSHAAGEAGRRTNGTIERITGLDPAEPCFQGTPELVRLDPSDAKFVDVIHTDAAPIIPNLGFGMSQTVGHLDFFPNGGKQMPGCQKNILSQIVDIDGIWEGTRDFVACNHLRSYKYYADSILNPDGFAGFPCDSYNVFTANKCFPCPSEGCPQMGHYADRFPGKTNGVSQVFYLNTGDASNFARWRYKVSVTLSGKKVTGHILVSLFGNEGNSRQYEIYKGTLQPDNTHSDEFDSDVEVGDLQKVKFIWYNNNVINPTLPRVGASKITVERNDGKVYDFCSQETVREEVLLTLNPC

[2] = Cytotoxicity against mouse 3T3L1 cells assessed as reduction in cell viability after 48 hrs by sulforhodamine B assay; assay type: cell-based; details: 3T3-L1 cells
[3] = tested on: 3T3-L1; assay: Cytotoxicity against mouse 3T3L1 cells assessed as effect on cell viability up to 50 uM by MTT assay; assay type: cell-based
[4] = tested on: 3T3-L1; assay: Inhibition of cell differentiation in mouse 3T3L1 cells assessed as reduction in pre-adipocyte differentiation into matured adipocytes at 2.5 to 10 uM incubated for 8 days in differentiation media by oil red O staining based method; assay type: functional
[5] = biological target: T1, Pancreatic triacylglycerol lipase; assay: Inhibition of porcine pancreatic lipase using pNPB as substrate measured after 30 mins using plasma treated sample
[6] = tested on: 3T3-L1; assay: Anti-adipogenic activity in mouse 3T3L1 preadipocytes assessed as decrease in lipid accumulation at 10 uM incubated for 8 days in differentiation media by Oil Red O staining based ELISA relative to control; assay type: functional; design: scale not given: the % may be the effect or the level left
[7] = tested on: 3T3-L1; assay: Anti-adipogenic activity in mouse 3T3L1 preadipocytes assessed as decrease in lipid accumulation at 5 uM incubated for 8 days in differentiation media by Oil Red O staining based ELISA relative to control; assay type: functional; design: scale not given: the % may be the effect or the level left
[8] = tested on: 3T3-L1; assay: Anti-adipogenic activity in mouse 3T3L1 preadipocytes assessed as decrease in lipid accumulation at 2.5 uM incubated for 8 days in differentiation media by Oil Red O staining based ELISA relative to control; assay type: functional; design: scale not given: the % may be the effect or the level left

Row | SMILES | IC50 [1] | MNTC at 48 h [2] | Activity [3] | inhibition [4] | IC50 [5] | Activity [6] | Activity [7] | Activity [8]
1 | Oc1cc(O)c2c(c1)O[C@H](c1ccc(O)c(O)c1)[C@@H](O)C2 [CIANIDANOL] | > 500 µM | – | – | – | 340 µM | – | – | –
2 | Oc1ccc([C@H]2Oc3c(Cc4c(O)c(Cc5c(O)cc(O)c6c5O[C@H](c5ccc(O)c(O)c5)[C@@H](O)C6)c5c(c4O)C[C@H](O)[C@@H](c4ccc(O)c(O)c4)O5)c(O)cc(O)c3C[C@@H]2O)cc1O | 45.9 µM | 50 µM | Non-Toxic | Active | – | – | – | –
3 | Oc1ccc([C@H]2Oc3c(Cc4c(O)cc(O)c5c4O[C@H](c4ccc(O)c(O)c4)[C@@H](O)C5)c(O)cc(O)c3C[C@@H]2O)cc1O | 110 µM | 50 µM | Non-Toxic | – | – | – | – | –

Further lines, with some results ahead:

Row | IC50 [1] | SMILES | MNTC at 48 h [2] | Activity [3] | inhibition [4] | IC50 [5] | Activity [6] | Activity [7] | Activity [8]
4 | 78.7 µM | Oc1ccc([C@H]2Oc3cc(O)c(Cc4c(O)cc5c(c4O)C[C@H](O)[C@@H](c4ccc(O)c(O)c4)O5)c(O)c3C[C@@H]2O)cc1O | 50 µM | Non-Toxic | Active | – | – | – | –
5 | 102 µM | Oc1ccc([C@H]2Oc3cc(O)c(Cc4c(O)cc(O)c5c4O[C@H](c4ccc(O)c(O)c4)[C@@H](O)C5)c(O)c3C[C@@H]2O)cc1O | 50 µM | Non-Toxic | – | – | – | – | –
6 | 18.8 µM | Oc1ccc([C@H]2Oc3c(Cc4c(O)c(Cc5c(O)c(Cc6c(O)cc(O)c7c6O[C@H](c6ccc(O)c(O)c6)[C@@H](O)C7)c(O)c6c5O[C@H](c5ccc(O)c(O)c5)[C@@H](O)C6)c5c(c4O)C[C@H](O)[C@@H](c4ccc(O)c(O)c4)O5)c(O)cc(O)c3C[C@@H]2O)cc1O | 50 µM | Non-Toxic | Active | – | 67.2% | 52.1% | 40.1%
